Laboratory results reported in patent publication US20260001881A1, “COMPOUNDS AND METHODS FOR MODULATION OF G-PROTEIN-COUPLED RECEPTORS” (PRIMETIME LIFE SCIENCES, LLC, priority 2018, published 2026).

How the values were obtained:
[1] = Stability of prodrugs in mouse plasma after 2 hours of treatment; type: in vitro ADME; details: 37° C.
[2] = target: hA3AR (Homo sapiens (Human), UniProt P0DMS8); experiment: Binding affinities for Adenosine receptors (hA3AR); details: CHO cells stably expressing recombinant hA3AR
[3] = target: hA1AR (Homo sapiens (Human), UniProt P30542); experiment: Binding affinities for Adenosine receptors (hA1AR); details: CHO cells stably expressing recombinant hA1AR
[4] = target: hA2AAR (Homo sapiens (Human), UniProt P29274); experiment: Binding affinities for Adenosine receptors (hA2AAR); details: HEK 293 cells stably expressing hA2AAR
Sequence of hA2AAR (P29274 whole entry): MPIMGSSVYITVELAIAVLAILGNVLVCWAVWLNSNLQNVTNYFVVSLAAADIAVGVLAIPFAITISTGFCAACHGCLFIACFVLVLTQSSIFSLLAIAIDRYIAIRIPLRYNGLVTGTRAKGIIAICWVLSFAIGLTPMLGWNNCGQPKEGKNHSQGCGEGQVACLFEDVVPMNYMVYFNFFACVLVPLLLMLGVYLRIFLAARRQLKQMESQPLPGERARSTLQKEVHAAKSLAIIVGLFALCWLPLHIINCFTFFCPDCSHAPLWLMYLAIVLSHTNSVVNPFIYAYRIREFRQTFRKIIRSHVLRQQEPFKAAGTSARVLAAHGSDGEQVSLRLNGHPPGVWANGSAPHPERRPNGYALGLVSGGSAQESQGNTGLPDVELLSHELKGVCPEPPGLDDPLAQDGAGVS

Sequence of hA1AR (P30542 whole entry): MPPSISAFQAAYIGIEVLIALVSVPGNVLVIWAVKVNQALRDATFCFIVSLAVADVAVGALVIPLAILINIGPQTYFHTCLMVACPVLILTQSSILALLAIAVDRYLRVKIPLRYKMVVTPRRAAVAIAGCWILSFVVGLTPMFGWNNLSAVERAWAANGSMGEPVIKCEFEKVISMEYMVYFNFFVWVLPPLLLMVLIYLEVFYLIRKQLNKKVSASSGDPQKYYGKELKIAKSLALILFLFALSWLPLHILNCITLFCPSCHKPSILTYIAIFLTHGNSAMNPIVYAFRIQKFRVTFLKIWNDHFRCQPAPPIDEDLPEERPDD
Sequence of hA3AR (P0DMS8 whole entry): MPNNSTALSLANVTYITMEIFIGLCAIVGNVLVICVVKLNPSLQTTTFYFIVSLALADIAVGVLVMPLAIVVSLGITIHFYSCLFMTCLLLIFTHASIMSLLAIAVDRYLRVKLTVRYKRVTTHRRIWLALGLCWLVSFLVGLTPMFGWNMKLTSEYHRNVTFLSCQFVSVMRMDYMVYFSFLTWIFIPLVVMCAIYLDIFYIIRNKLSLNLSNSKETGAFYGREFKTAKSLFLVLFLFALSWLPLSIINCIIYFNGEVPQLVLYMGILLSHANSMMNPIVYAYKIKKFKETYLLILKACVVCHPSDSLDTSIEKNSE

Parent prodrug remained after 2 hours [1] [%]	Ki [2] [µM]	Ki [3] [µM]	Ki [4] [µM]	Structure (SMILES)
14	–	–	–	CC(C)[C@H](N)C(=O)N(c1nc(Cl)nc2c1ncn2[C@H]1[C@H](O)[C@H](O)[C@@H]2C[C@@H]21)C(C1CC1)C1CC1 [Compound T3.1, (S)-2-amino-N-(2-chloro-9-((1S,2R,3S,4R,5R)-3,4-dihydroxybicyclo[3.1.0]hexan-2-yl)-9H-purin-6-yl)-N-(dicyclopropylmethyl)-3-methylbutanamide]
21	–	–	–	CC(C)[C@H](N)C(=O)OC[C@@]12C[C@@H]1[C@@H](n1cnc3c(NC(C4CC4)C4CC4)nc(Cl)nc31)[C@H](O)[C@@H]2O [Compound T4.1, ((1R,2R,3S,4R,5S)-4-(2-chloro-6-((dicyclopropylmethyl)amino)-9H-purin-9-yl)-2,3-dihydroxybicyclo[3.1.0]hexan-1-yl)methyl L-valinate]
17	–	–	–	CNC(=O)[C@@]12C[C@@H]1[C@@H](n1cnc3c(NCc4cccc(Cl)c4)nc(C#Cc4ccc(F)c(F)c4)nc31)[C@@H]1OC3(CCN(C)CC3)O[C@@H]12 [Compound T9.8, (3aR,3bS,4aS,5R,5aS)-5-(6-((3-chlorobenzyl)amino)-2-((3,4-difluorophenyl)ethynyl)-9H-purin-9-yl)-N,1′-dimethyltetrahydrospiro[cyclopropa[3,4]cyclopenta[1,2-d][1,3]dioxole-2,4′-piperidine]-3b(3aH)-carboxamide]
–	1 to 10	< 1	> 10	C[C@@H]1CC(n2cnc3c(NC(C4CC4)C4CC4)nc(Cl)nc32)C(O)C1O (some centres unmarked) [Compound T13.1]
–	> 10	< 1	1 to 10	C[C@@H]1CC(n2cnc3c(NC4C5(CC5)C45CC5)nc(Cl)nc32)C(O)C1O (some centres unmarked) [Compound T13.2]
–	> 10	< 1	> 10	C[C@@H]1CC(n2cnc3c(NC(C4CCC4)C4CCC4)nc(Cl)nc32)C(O)C1O (some centres unmarked) [Compound T13.3]
–	> 10	1 to 10	1 to 10	C[C@@H]1CC(n2cnc3c(NC(C4CC4)C4CC4)ncnc32)C(O)C1O (some centres unmarked) [Compound T13.4]
–	> 10	> 10	> 10	C[C@@H]1CC(n2cnc3c(NC4C5(CC5)C45CC5)ncnc32)C(O)C1O (some centres unmarked) [Compound T13.5]
–	> 10	1 to 10	1 to 10	C[C@@H]1CC(n2cnc3c(NC(C4CCC4)C4CCC4)ncnc32)C(O)C1O (some centres unmarked) [Compound T13.6]
–	> 10	1 to 10	1 to 10	OC[C@H]1O[C@@H](n2cnc3c(NC(C4CC4)C4CC4)nc(Cl)nc32)[C@@H](O)C1O (some centres unmarked) [Compound T14.1]
–	> 10	> 10	1 to 10	OC[C@H]1O[C@@H](n2cnc3c(NC4C5(CC5)C45CC5)nc(Cl)nc32)[C@@H](O)C1O (some centres unmarked) [Compound T14.2]
–	< 1	> 10	1 to 10	OC[C@H]1O[C@@H](n2cnc3c(NC(C4CCC4)C4CCC4)nc(Cl)nc32)[C@@H](O)C1O (some centres unmarked) [Compound T14.3]
–	1 to 10	> 10	1 to 10	OC[C@H]1O[C@@H](n2cnc3c(NC(C4CC4)C4CC4)ncnc32)[C@@H](O)C1O (some centres unmarked) [Compound T14.4]
–	> 10	1 to 10	> 10	OC[C@H]1O[C@@H](n2cnc3c(NC4C5(CC5)C45CC5)ncnc32)[C@@H](O)C1O (some centres unmarked) [Compound T14.5]
–	1 to 10	1 to 10	1 to 10	OC[C@H]1O[C@@H](n2cnc3c(NC(C4CCC4)C4CCC4)ncnc32)[C@@H](O)C1O (some centres unmarked) [Compound T14.6]

Structure (SMILES)	Parent prodrug remained after 2 hours [1] [%]	Ki [2] [µM]	Ki [3] [µM]	Ki [4] [µM]
CC(C)[C@H](N)C(=O)OC1C(OC(=O)[C@@H](N)C(C)C)[C@@H]2C[C@@H]2C1n1cnc2c(NC(C3CC3)C3CC3)nc(Cl)nc21.Cl.Cl (stereo partly drawn) [Compound T1.1, (1R,5S)-4-(2-chloro-6-((dicyclopropylmethyl)amino)-9H-purin-9-yl)bicyclo[3.1.0]hexane-2,3-diyl (2S,2'S)-bis(2-amino-3-methylbutanoate), dihydrochloride salt]	11	–	–	–
CNC(=O)[C@@]12C[C@@H]1[C@@H](n1cnc3c(NCc4cccc(Cl)c4)nc(C#Cc4ccc(F)c(F)c4)nc31)[C@H](OC(=O)[C@@H](N)C(C)C)[C@@H]2OC(=O)[C@@H](N)C(C)C [Compound T8.1, (1S,2R,3S,4R,5S)-4-(6-((3-chlorobenzyl)amino)-2-((3,4-difluorophenyl)ethynyl)-9H-purin-9-yl)-1-(methylcarbamoyl)bicyclo[3.1.0]hexane-2,3-diyl (2S,2'S)-bis(2-amino-3-methylbutanoate)]	9	–	–	–
